Measured values reported in paper PMC6272684, “Synthesis, Antiproliferative and Antifungal Activities of 1,2,3-Triazole-Substituted Carnosic Acid and Carnosol Derivatives” (Molecules, 2015).

Experiments:
[1] = test system: C. albicans ATCC 10231; test: Antifungal broth microdilution (CLSI M27-A3), growth inhibition; assay type: cell-based, Candida albicans; conditions: for MIC50 (minimum concentration to inhibit 50% of fungal growth), C. albicans: C. albicans ATCC 10231
Summary of the method: (§1)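 Yeast inocula (1–5 × 10^3 CFU/mL) were tested by CLSI M27-A3 broth microdilution in RPMI-1640 at 250–3.9 μg∙mL^−1 (DMSO ≤1%) for 48 h at 30 °C in the dark. Growth was read at OD405, and % inhibition was calculated against growth and sterility controls in triplicate. MIC100 is total inhibition; MIC50 is 50% inhibition.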

[2] = test system: normal lung fibroblasts (MRC-5); test: Antiproliferative assay (MTT reduction, 3 days); assay type: cell-based, human; conditions: MRC-5 normal fibroblasts, >100 µM considered inactive; for IC50: read-out: IC50 ± SD, MRC-5
Method: (§2) The antiproliferative activity towards the following human cell lines was determined: normal lung fibroblasts (MRC-5), gastric epithelial adenocarcinoma (AGS), lung cancer (SK-MES-1) and bladder carcinoma (J82) cells.
(§3) All human cell lines used in this work were purchased from the American Type Culture Collection (ATCC, Manasas, VA, USA). […] All media were supplemented with 10% heat-inactivated FBS, 100 IU∙mL^−1 penicillin and 100 µg∙mL^−1 streptomycin. Cells were grown in a humidified incubator with 5% CO2 in air at 37 °C. For the antiproliferative assay, cells were plated at a density of 5 × 10^4 cells∙mL^−1. Cells were seeded in 96-well plates (100 µL∙well^−1). One day after seeding, cells were treated with medium containing the compounds at concentrations ranging from 0 up to 100 µM during 3 days. The compounds were dissolved in DMSO (1% final concentration) and complete medium. Untreated cells (medium containing 1% DMSO) were used as 100% viability controls. […] Each concentration was tested in sextuplicate and experiments were repeated 2 times. Cell viability was determined by means of the MTT reduction assay at the end of the incubation with the products. […] The software used was OriginPro 8.1 [30].

[3] = test system: lung cancer (SK-MES-1) cells; test: Antiproliferative assay (MTT reduction, 3 days); assay type: cell-based, human; conditions: >100 µM considered inactive, read-out: IC50 ± SD, SK-MES-1
Method: as §2, §3

[4] = test system: C. neoformans ATCC 32264; test: Antifungal broth microdilution (CLSI M27-A3), growth inhibition; assay type: cell-based, Cryptococcus neoformans; conditions: for MIC50 (minimum concentration to inhibit 50% of fungal growth), C. neoformans: C. neoformans ATCC 32264
Summary of the method: as §1

[5] = test system: gastric epithelial adenocarcinoma (AGS) cells; test: Antiproliferative assay (MTT reduction, 3 days); assay type: cell-based, human; conditions: >100 µM considered inactive; for IC50: read-out: IC50 ± SD, AGS
Method: as §2, with “cells. […] When comparing the pairs 3–4, 5–6 and 7–8 differing in one CH2 unit in the linker, the activity decreased with linker length.” for “cells.”
(§4) All human cell lines used in this work were purchased from the American Type Culture Collection (ATCC, Manasas, VA, USA). Normal lung MRC-5 fibroblasts (CCL-171), SK-MES-1 lung cancer cells (HTB-58) and J82 bladder carcinoma cells (HTB-1) were grown as monolayers in minimum essential Eagle medium (MEM) with Earles’s salts, 2 mM L-glutamine and 1.5 g∙L^−1 sodium bicarbonate. Gastric adenocarcinoma AGS cells (CRL-1739) were grown as monolayers in Ham F-12 medium containing 1 mM L-glutamine and 1.5 g∙L^−1 sodium bicarbonate. All media were supplemented with 10% heat-inactivated FBS, 100 IU∙mL^−1 penicillin and 100 µg∙mL^−1 streptomycin. Cells were grown in a humidified incubator with 5% CO2 in air at 37 °C. For the antiproliferative assay, cells were plated at a density of 5 × 10^4 cells∙mL^−1. Cells were seeded in 96-well plates (100 µL∙well^−1). One day after seeding, cells were treated with medium containing the compounds at concentrations ranging from 0 up to 100 µM during 3 days. The compounds were dissolved in DMSO (1% final concentration) and complete medium. Untreated cells (medium containing 1% DMSO) were used as 100% viability controls. […] Each concentration was tested in sextuplicate and experiments were repeated 2 times. Cell viability was determined by means of the MTT reduction assay at the end of the incubation with the products. The results were transformed to percentage of controls and the IC50 value was obtained adjusting the dose-response curve to a sigmoidal model. The software used was OriginPro 8.1 [30].

[6] = test system: bladder carcinoma (J82) cells; test: Antiproliferative assay (MTT reduction, 3 days); assay type: cell-based, human; conditions: J82 cells, 3 days, MTT; >100 µM considered inactive; read-out: IC50 ± SD, J82
Method: as §2, with “cells. […] When comparing the pairs 3–4, 5–6 and 7–8 differing in one CH2 unit in the linker, the activity decreased with linker length.” for “cells.”
as §4

MIC50 (minimum concentration to inhibit 50% of fungal growth), C. albicans [1]	IC50 [3]	MIC50 (minimum concentration to inhibit 50% of fungal growth), C. neoformans [4]	IC50 [5]	IC50 [6]	Compound	Inhibition percentage against C. albicans ATCC 10231 ([1]; 3.9 μg∙mL^−1, 48 h)	Inhibition percentage against C. albicans ATCC 10231 ([1]; 7.8 μg∙mL^−1, 48 h)	Inhibition percentage against C. albicans ATCC 10231 ([1]; 15.6 μg∙mL^−1, 48 h)	Inhibition percentage against C. albicans ATCC 10231 ([1]; 62.5 μg∙mL^−1, 48 h)	Inhibition percentage against C. albicans ATCC 10231 ([1]; 125 μg∙mL^−1, 48 h)	Inhibition percentage against C. albicans ATCC 10231 ([1]; 250 μg∙mL^−1, 48 h)	Inhibition percentage against C. albicans ATCC 10231 ([1]; 31. μg∙mL^−1, 48 h)	IC50 [2]	Inhibition percentage against C. neoformans ATCC 32264 ([4]; 3.9 μg∙mL^−1, 48 h)	Inhibition percentage against C. neoformans ATCC 32264 ([4]; 7.8 μg∙mL^−1, 48 h)	Inhibition percentage against C. neoformans ATCC 32264 ([4]; 15.6 μg∙mL^−1, 48 h)	Inhibition percentage against C. neoformans ATCC 32264 ([4]; 31.2 μg∙mL^−1, 48 h)	Inhibition percentage against C. neoformans ATCC 32264 ([4]; 62.5 μg∙mL^−1, 48 h)	Inhibition percentage against C. neoformans ATCC 32264 ([4]; 125 μg∙mL^−1, 48 h)	Inhibition percentage against C. neoformans ATCC 32264 ([4]; 250 μg∙mL^−1, 48 h)	other results
>250 µg/mL	> 100 µM	>250 µg/mL	> 100 µM	> 100 µM	CC(C)c1cc2c3c(c1OC(=O)CCCc1cn(Cc4ccc(Br)cc4)nn1)OC(=O)[C@@]31CCCC(C)(C)[C@@H]1CC2 [Compound 6, 12-O-(4-(1-(4-bromobenzyl)-1H-1,2,3-triazol-4-yl)-butanoyloxy)-11,20-epoxyabieta-8,11,13-trien-20-one]	0.0%	1.4 ± 0.4%	1.5 ± 0.1%	13.2 ± 1.4%	19.9 ± 0.5%	45.4 ± 3.4%	4.2 ± 0.9%	> 100 µM	0.0%	0.0%	0.0%	5.4 ± 0.7%	12.7 ± 0.8%	22.4 ± 1.5%	41.4 ± 2.7%	–
>250 µg/mL	73 ± 3.9 µM	>250 µg/mL	48.9 ± 3.9 µM	74.1 ± 3.9 µM	CC(C)c1cc2c3c(c1OC(=O)CCc1cn(Cc4ccccc4)nn1)OC(=O)[C@@]31CCCC(C)(C)[C@@H]1CC2 [Compound 3, 12-O-(3-(1-benzyl-1H-1,2,3-triazol-4-yl)-propanoyloxy)-11,20-epoxyabieta-8,11,13-trien-20-one]	5.7 ± 0.8%	8.1 ± 0.8%	9.1 ± 1.5%	14.3 ± 2.0%	20.2 ± 2.2%	20.3 ± 3.9%	11.1 ± 0.4%	43.4 ± 3 µM	4.9 ± 0.5%	9.0 ± 0.3%	9.7 ± 0.1%	14.3 ± 2.0%	16.7 ± 0.5%	18.4 ± 0.2%	26.7 ± 1.5%	Antifungal activity against C. albicans (in words) ([1]; at the assayed concentrations (250–3.9 μg∙mL^−1)): devoid of activity; IC50 ± SD, MRC-5 [2]: active; IC50 ± SD, AGS [5]: active
>250 µg/mL	> 100 µM	>250 µg/mL	> 100 µM	> 100 µM	CC(C)c1cc2c3c(c1OC(=O)CCCc1cn(Cc4ccc([N+](=O)[O-])cc4)nn1)OC(=O)C31CCCC(C)(C)C1CC2 (centres unmarked) [Compound 8, 12-O-(4-(1-(4-nitrobenzyl)-1H-1,2,3-triazol-4-yl)-butanoyloxy)-11,20-epoxyabieta-8,11,13-trien-20-one]	0.0%	0.0%	0.0%	5.6 ± 1.7%	14.0 ± 1.9%	27.5 ± 2.0%	2.5 ± 1.3%	> 100 µM	0.0%	0.0%	0.3 ± 0.1%	0.8 ± 0.1%	8.2 ± 2.8%	9.5 ± 2.9%	10.4 ± 2.8%	–
250 µg/mL	76 ± 5.1 µM	250 µg/mL	41 ± 2.1 µM	80.1 ± 4.3 µM	CC(C)c1cc2c3c(c1OC(=O)CCCc1cn(CSc4ccccc4)nn1)OC(=O)C31CCCC(C)(C)C1CC2 (centres unmarked) [Compound 2, 12-O-(4-(((1-phenylthio)methyl)-1H-1,2,3-triazol-4-yl)-butanoyloxy)-11,20-epoxyabieta-8,11,13-trien-20-one]	1.5 ± 0.1%	1.9 ± 0.5%	5.2 ± 0.6%	15.7 ± 1.8%	27.9 ± 1.8%	50.7 ± 0.3%	8.9 ± 1.8%	46.9 ± 3.4 µM	1.5 ± 0.1%	1.9 ± 0.5%	10.3 ± 1.0%	11.8 ± 0.3%	20.7 ± 0.6%	22.1 ± 1.5%	74.8 ± 2.8%	–
